{"source": "patent US9802985B2", "about": "“Pharmaceutical composition for treatment of the pulmonary form of altitude sickness caused by lack of oxygen and reduced air pressure” (APEPTICO FORSCHUNG UND E[…], priority 2012, dated 2017)", "key": {"[1]": {"system": "pulmonary form of altitude sickness in rats", "experiment": "experimental rat model of the pulmonary form of altitude sickness (physical activity under reduced oxygen and air pressure)", "format": "in vivo, rat (Sprague Dawley)", "text": "Physical exertion under conditions of reduced oxygen and air pressure, such as occur at high altitudes, are the 2 main factors which lead to the development of the pulmonary form of altitude sickness. Therefore, the selected rat model, in which the rats carried out physical activity under conditions of reduced oxygen and reduced air pressure, simulates a physically strenuous ascent to high altitudes. This takes place without carrying out a prior acclimatization. This corresponds to the scenario such as is to be found in the case of mountaineers who suffer from the pulmonary form of altitude sickness at high altitudes. In the model which was used, the rats develop the typical symptoms for the pulmonary form of altitude sickness, as is to be read in the “intensity of the pulmonary form of altitude sickness”, the increased protein concentration in the lung fluid and the histological appearance of the lung tissue. It is further to be noted that the lung damage in this model is not caused by administration of endotoxins, microbes or other agents which are damaging to the lung. […] Also, no specific strain of rat was used for this experiment. Therefore, this rat model is well suited to investigate a medicament for the treatment of the pulmonary form of altitude sickness.\nLaboratory rats (Sprague Dawley rats) carried out physical activity through external stimulation for 48 hours under conditions of reduced oxygen and air pressure. Here, the air pressure was reduced to a value below 430 Torr, so that a height of over 4500 m was simulated. A prior acclimatization of the rats to the height of over 4500 m was not carried out. During this time, the rats were able to undertake a 15-20 minute pause every 4 hours in order to take in water and food. […] The lungs were then removed and the intensity of the pulmonary form of altitude sickness was determined (FIG. 1), the protein content in the lung fluid was determined (FIG. 2) and the histological appearance of the lung tissue was determined (FIG. 3)."}, "[2]": {"system": "interleukin-6 (IL-6) secretion in human full blood", "experiment": "ex vivo release of interleukin-6 from fresh human full blood cultures (ELISA)", "format": "cell-based", "details": "for Concentration of IL-6: human full blood, 24 hours, n=5", "experimental": "In this study, fresh full blood was used; this is a recognized prediction model for the assessment of the inflammatory reaction in vivo.\nThe aim of this study was to determine the pro-inflammatory signal capacity of the peptide SEQ ID NO: 1.\nFull blood (FB) cultures were carried out by pipetting 1 ml FB in depressions of 24-well plates. In each experiment, unstimulated and stimulated control cultures were included.\nIf possible, the substances and stimulants to be examined were always used in the same volume in each well in a given experiment, which is not greater than 10% of the total volume in a well. Unstimulated controls took place with PBS. Volume adjustment and dilutions for different treatments were likewise carried out with PBS.\nThe content of each well was mixed and the plates were incubated at 37° C. and 5% CO2 for 24 hours. After incubation, the content of each well was transferred into a fresh 1.5 ml microtube and centrifuged at 8000 to 9000×g for 15 minutes. The supernatant of each sample was divided individually to two 1.5 ml reaction vessels and stored at −20° C. until use.\nInterleukin-6 was quantified by means of a specific ELISA (Human IL-6 ELISA-Set, BD Biosciences, Cat. No. 555220) using an anti-human-IL-6 antibody as capture antibody, a biotinylated anti-human IL-6 detection antibody, avidin horseradish peroxidise conjugate as enzyme reagent and recombinant IL-6 as standard. Absorption measurement at 450 nm was carried out with the Packard Fusion reader.\nThe results of each plate were stored and evaluated with the fusion data analysis software. […]"}, "[3]": {"biological_target": "T1, amiloride-sensitive epithelial sodium ion channel (ENaC) (Homo sapiens, UniProt P37088+P51168+P51170)", "T1 construct": "the human alveolar epithelial cell line A549 was used; endogenous in cells; host or cells: A549 (human alveolar epithelial cell line)", "T1 sequence (P51168 whole entry)": "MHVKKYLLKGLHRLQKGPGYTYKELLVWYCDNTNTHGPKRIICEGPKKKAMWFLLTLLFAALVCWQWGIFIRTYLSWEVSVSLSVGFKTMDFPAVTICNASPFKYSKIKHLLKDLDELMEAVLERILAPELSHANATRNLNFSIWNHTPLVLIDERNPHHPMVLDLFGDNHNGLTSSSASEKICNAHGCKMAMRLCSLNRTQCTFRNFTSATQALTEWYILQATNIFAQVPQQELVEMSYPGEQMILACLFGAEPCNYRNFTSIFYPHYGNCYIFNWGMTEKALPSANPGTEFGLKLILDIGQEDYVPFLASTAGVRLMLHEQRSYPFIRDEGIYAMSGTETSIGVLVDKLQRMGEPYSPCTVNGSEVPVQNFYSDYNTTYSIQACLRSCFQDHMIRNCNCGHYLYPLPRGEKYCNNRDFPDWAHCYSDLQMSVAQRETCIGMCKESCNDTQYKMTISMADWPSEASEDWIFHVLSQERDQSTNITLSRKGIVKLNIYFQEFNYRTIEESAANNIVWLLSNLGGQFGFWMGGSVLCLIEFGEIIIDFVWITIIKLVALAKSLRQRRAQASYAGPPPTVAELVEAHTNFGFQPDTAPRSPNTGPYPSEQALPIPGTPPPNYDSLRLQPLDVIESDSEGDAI", "T1 sequence (P37088 whole entry)": "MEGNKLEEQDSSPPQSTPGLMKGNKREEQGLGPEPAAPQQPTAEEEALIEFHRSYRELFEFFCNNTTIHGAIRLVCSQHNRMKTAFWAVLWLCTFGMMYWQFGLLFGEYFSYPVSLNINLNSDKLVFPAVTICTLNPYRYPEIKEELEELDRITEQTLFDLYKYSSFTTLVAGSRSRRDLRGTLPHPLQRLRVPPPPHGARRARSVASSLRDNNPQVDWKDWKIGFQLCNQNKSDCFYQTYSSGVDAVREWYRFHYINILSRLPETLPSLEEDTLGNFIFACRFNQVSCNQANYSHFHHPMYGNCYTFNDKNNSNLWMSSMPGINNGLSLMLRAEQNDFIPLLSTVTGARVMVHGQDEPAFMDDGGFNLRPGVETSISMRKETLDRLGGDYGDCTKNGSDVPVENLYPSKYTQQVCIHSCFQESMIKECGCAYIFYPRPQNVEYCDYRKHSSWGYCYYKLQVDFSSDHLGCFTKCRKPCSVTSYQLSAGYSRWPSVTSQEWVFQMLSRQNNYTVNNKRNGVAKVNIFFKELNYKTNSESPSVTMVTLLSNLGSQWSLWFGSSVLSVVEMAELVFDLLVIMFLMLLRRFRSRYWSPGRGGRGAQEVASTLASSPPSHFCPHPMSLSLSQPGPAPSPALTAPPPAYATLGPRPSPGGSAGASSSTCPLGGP", "T1 sequence (P51170 whole entry)": "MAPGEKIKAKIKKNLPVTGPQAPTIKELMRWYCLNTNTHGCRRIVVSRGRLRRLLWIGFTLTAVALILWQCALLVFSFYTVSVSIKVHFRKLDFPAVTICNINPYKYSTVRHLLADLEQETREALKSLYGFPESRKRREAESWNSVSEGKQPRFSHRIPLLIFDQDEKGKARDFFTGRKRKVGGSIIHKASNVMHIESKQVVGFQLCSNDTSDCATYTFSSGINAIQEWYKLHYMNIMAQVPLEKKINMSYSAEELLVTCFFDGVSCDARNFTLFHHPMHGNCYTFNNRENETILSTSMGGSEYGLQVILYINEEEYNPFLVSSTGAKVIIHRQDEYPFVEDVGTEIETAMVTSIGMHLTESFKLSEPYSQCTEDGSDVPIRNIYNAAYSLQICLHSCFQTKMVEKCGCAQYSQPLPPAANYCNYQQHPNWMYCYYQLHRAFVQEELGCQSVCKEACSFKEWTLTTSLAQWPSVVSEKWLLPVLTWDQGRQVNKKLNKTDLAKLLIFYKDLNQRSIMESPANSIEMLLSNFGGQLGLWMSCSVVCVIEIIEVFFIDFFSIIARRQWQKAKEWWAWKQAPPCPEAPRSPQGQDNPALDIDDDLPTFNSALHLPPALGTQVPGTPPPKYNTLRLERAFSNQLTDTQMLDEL", "experiment": "whole cell patch clamp test with A549 cells (Example 3)", "format": "cell-based", "details": "for effect on the Na+ flow (in words) / effect on the Na+ flow / ENaC (in words): whole cell patch clamp; for effect on the Na+ flow / ENaC (in words): 300 nM in bath solution, n=3", "text": "According to patent application EP 2 009 023 A1, the so-called transepithelial electrical resistance (TEER) test was used for the screening of anti-lung oedema active ingredient candidates. The “TEER test” is not an established test for the prediction of fluid clearance in lung oedemas (this test can not be found in the relevant scientific literature and also has no relevance with regard to the cells being used (Calu-3 cells) in a model for gas exchange in the human lung). In the present example—in addition to the peptide according to the invention—the peptides […], […] and (cyclized) […] were investigated by means of a whole cell patch clamp assay, an established methodology for the measurement of ion movement over the cell membranes and especially for the measuring of the sodium transport over the cell membrane of alveolar epithelial cells (Eaton et al., Fed. Proc. 45 (1986), 2707; Hamill et al., Pflugers Arch. 391 (1981) 85-100. Here it was to be tested whether or not the peptides can activate the amiloride-sensitive epithelial sodium flow in lung cells.\nThe whole cell patch clamp test using A549 cells took place as described in Hazemi et al. (J. Med. Chem. 53 (2010), 8021-8029). […] In cases where an increase of the flow after addition of a given peptide was observed, an amiloride solution (to […] final concentration) was added to the bath solution—after the flow reached a stationary state —, in order to differentiate the amiloride-sensitive from the amiloride-insensitive flow. The amiloride-sensitive flow was then calculated by subtracting the flow value after addition of amiloride (amiloride-insensitive) from the flow value of the stationary state before the addition of amiloride. For each peptide, three experiments were carried out in different A549 cells (n=3)."}, "[4]": {"biological_target": "T2, amiloride-sensitive sodium ion channel (ENaC) (Homo sapiens, UniProt P37088+P51168+P51170)", "T2 construct": "Macroscopic sodium ion flows were derived from human lung epithelial cells A549; endogenous in cells; host or cells: A549 (human lung epithelial cells)", "T2 sequence (P37088 whole entry)": "as the sequence (P37088 whole entry) above", "T2 sequence (P51168 whole entry)": "as the sequence (P51168 whole entry) above", "T2 sequence (P51170 whole entry)": "as the sequence (P51170 whole entry) above", "experiment": "whole cell patch clamp on A549 cells, amiloride-sensitive sodium ion flow, EC50 (Example 4)", "format": "cell-based", "text": "The activity of the individual peptides is indicated as EC50 (in nM)."}, "[5]": {"details": "intratracheal 100, 300 and 600 μg/rat (especially 300 μg), 4 hours after administration"}}, "note": "Entries after “also recorded” stand apart in the source; their conditions may differ. No end group written: not given here.", "data": [{"compound": "C[C@@H]1NC(=O)CNC(=O)[C@H](CCC(=O)O)NC(=O)[C@@H]2CCCN2C(=O)[C@H]([C@@H](C)O)NC(=O)[C@H](CCC(=O)O)NC(=O)[C@H](CCCNC(=N)N)NC(=O)[C@H](CCC(N)=O)NC(=O)CNC(=O)[C@@H](N)CSSC[C@@H](C(=O)O)NC(=O)[C@H](Cc2ccc(O)cc2)NC(=O)[C@H](Cc2c[nH]c3ccccc23)NC(=O)[C@@H]2CCCN2C(=O)[C@H](CCCCN)NC(=O)[C@H](C)NC(=O)[C@H](CCC(=O)O)NC1=O", "note": "[SEQ ID NO: 1]", "values": [{"measurement": "histological appearance of lung tissue", "setting": "[1]; 4 hours after intratracheal administration", "result": "comparable with healthy lung tissue of the control rats"}, {"measurement": "intensity of the pulmonary form of altitude sickness", "setting": "[1]; [5]", "result": "led to reduction of the intensity of the pulmonary form of altitude sickness"}, {"measurement": "protein concentration in the lung fluid", "setting": "[1]; [5]", "result": "led to reduction of the protein concentration in the lung fluid"}, {"measurement": "induction of IL-6 secretion (in words)", "setting": "[2]; human full blood cultures of five healthy donors, all tested concentrations (10 μg/ml to 1 ng/ml)", "result": "did not induce any detectable amount of IL-6 secretion; also recorded: induced no detectable level of IL-6"}, {"measurement": "TNF receptor binding activity (concluded from absent IL-6 release)", "setting": "[2]; human full blood ex vivo model", "result": "does not have TNF receptor binding activity"}, {"measurement": "Concentration of IL-6", "setting": "[2]", "result": "less than 0.5 pg/ml"}, {"measurement": "Concentration of IL-6", "setting": "[2]; test concentration 1 ng/ml", "result": "less than 0.5 pg/ml"}, {"measurement": "Concentration of IL-6", "setting": "[2]; test concentration 3 ng/ml", "result": "less than 0.5 pg/ml"}, {"measurement": "Concentration of IL-6", "setting": "[2]; test concentration 1 mg/ml", "result": "less than 0.5 pg/ml"}, {"measurement": "amiloride-sensitive Na+ flow after addition of the peptide", "setting": "[3]; 240 nM, increased from 50 pA, flow minus amiloride-insensitive flow", "result": 1037, "unit": "pA"}, {"measurement": "effect on the Na+ flow (in words)", "setting": "[3]; 240 nM in bath solution", "result": "induced an increase of the sodium flow over that of the control value"}, {"measurement": "effect on the Na+ flow (in words)", "setting": "[3]; 240 nM in bath solution, listed as AP301", "result": "immediate intensifying effect"}, {"measurement": "active Na+ flow after addition of the peptide (maximum)", "setting": "[3]; whole cell, clamped at -100 mV, 240 nM in bath solution, control value 86 pA±5 pA", "result": "1073±15", "unit": "pA"}]}, {"compound": "N=C(N)NC(=O)c1nc(Cl)c(N)nc1N", "note": "[amiloride]", "values": [{"measurement": "Na+ flow after subsequent addition of amiloride", "setting": "[3]; after AP301 240 nM, amiloride 100 mM in bath solution", "result": 36, "unit": "pA"}]}, {"compound": "CGQREAPAGAAAKPWYC [SEQ ID NO: 19]", "values": [{"measurement": "EC50 (nM), cellular amiloride-sensitive sodium ion flow", "setting": "[4]; A549 cells, whole cell patch clamp, concentration at 50% of maximum increase of flow", "result": "No activity"}, {"measurement": "activity on the amiloride-sensitive sodium ion channel (in words)", "setting": "[4]; A549 lung cells", "result": "not active"}]}, {"compound": "CGTKPIELGPDEPKAVC (not fully specified (bridges); also: cyclic)", "values": [{"measurement": "effect on the Na+ flow / ENaC (in words)", "setting": "[3]", "result": "no activating effect; also recorded: no effect on the flow; also recorded: none of the other three peptides had an influence on the flow"}]}, {"compound": "QRETPEGAEAKPWY", "values": [{"measurement": "effect on the Na+ flow / ENaC (in words)", "setting": "[3]", "result": "no activating effect; also recorded: no effect on the flow; also recorded: none of the other three peptides had an influence on the flow"}]}, {"compound": "TKPIELGPDEPKAV", "values": [{"measurement": "effect on the Na+ flow / ENaC (in words)", "setting": "[3]", "result": "no activating effect; also recorded: no effect on the flow; also recorded: none of the other three peptides had an influence on the flow"}]}]}
